# The supplement of paper PMC10307832
# Columns and labels:
# Assay in all cases: relative viability (nuclei count vs DMSO), 5 days (fraction); higher = more cells survive
# [1] = system: A-427
# Outline: (§1)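 Lung cancer cell lines in 1536-well plates were dosed by pin tool the day after seeding, either with one drug alone or with a fixed anchor-drug dose plus five library-drug doses (not always all listed) in √10 steps. After 5 days, cells were fixed and their nuclei stained in one step (final 0.05% Triton X-100, 1% formaldehyde, 1 ug/ml Hoechst), then counted on 4× images. Relative viability is the nuclei count in treated wells divided by that in vehicle wells. Values are medians of duplicate plates.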
# [2] = system: BEN
# Outline: as §1
# [3] = system: HARA
# Outline: as §1
# [4] = system: LCLC-97TM1
# Outline: as §1
# [5] = system: LOU-NH91
# Outline: as §1
# [6] = system: LU99A
# Outline: as §1
# [7] = system: LXF-289
# Outline: as §1
# [8] = system: NCI-H1395
# Outline: as §1
# [9] = system: NCI-H1666
# Outline: as §1
# [10] = system: NCI-H1755
# Outline: as §1
# [11] = system: NCI-H1793
# Outline: as §1
# [12] = system: NCI-H1915
# Outline: as §1
# [13] = system: NCI-H1944
# Outline: as §1
# [14] = system: NCI-H2023
# Outline: as §1
# [15] = system: NCI-H2126
# Outline: as §1
# [16] = system: NCI-H2170
# Outline: as §1
# [17] = system: NCI-H23
# Outline: as §1
# [18] = system: NCI-H322M
# Outline: as §1
# [19] = system: NCI-H441
# Outline: as §1
# [20] = system: NCI-H460
# Outline: as §1
# [21] = system: NCI-H650
# Outline: as §1
# [22] = system: PC-3 [JPC-3]
# Outline: as §1
# [23] = system: SK-LU-1
# Outline: as §1
structure (smiles),measurement,setting,value
O=C(O)CCCCC(CCSCc1ccccc1)SCc1ccccc1 (centres undefined) [CPI-613] + COc1cccc2cc(-c3nc([C@H]4CC[C@H](C(=O)O)CC4)n4ncnc(N)c34)[nH]c12 [OSI-027] (partner 0.5 µM),relative viability,[1]; first compound 5 µM,0.416
same,relative viability,[1]; first compound 15.81 µM,0.423
same,relative viability,[1]; first compound 50 µM,0.387
same,relative viability,[1]; first compound 158.11 µM,0.348
same,relative viability,[1]; first compound 500 µM,0.154
same,relative viability,[2]; first compound 5 µM,0.289
same,relative viability,[2]; first compound 15.81 µM,0.298
same,relative viability,[2]; first compound 50 µM,0.304
same,relative viability,[2]; first compound 158.11 µM,0.265
same,relative viability,[2]; first compound 500 µM,0.28
same,relative viability,[3]; first compound 15.81 µM,0.482
same,relative viability,[3]; first compound 50 µM,0.387
same,relative viability,[3]; first compound 158.11 µM,0.188
same,relative viability,[3]; first compound 500 µM,0.0367
same,relative viability,[4]; first compound 5 µM,0.508
same,relative viability,[4]; first compound 15.81 µM,0.519
same,relative viability,[4]; first compound 50 µM,0.67
same,relative viability,[4]; first compound 158.11 µM,0.474
same,relative viability,[4]; first compound 500 µM,0.0503
same,relative viability,[5]; first compound 5 µM,0.703
same,relative viability,[5]; first compound 15.81 µM,0.65
same,relative viability,[5]; first compound 50 µM,0.703
same,relative viability,[5]; first compound 158.11 µM,0.686
same,relative viability,[5]; first compound 500 µM,0.672
same,relative viability,[6]; first compound 5 µM,0.29
same,relative viability,[6]; first compound 15.81 µM,0.279
same,relative viability,[6]; first compound 50 µM,0.262
same,relative viability,[6]; first compound 158.11 µM,0.24
same,relative viability,[6]; first compound 500 µM,0.0972
same,relative viability,[7]; first compound 5 µM,0.788
same,relative viability,[7]; first compound 15.81 µM,0.694
same,relative viability,[7]; first compound 50 µM,0.733
same,relative viability,[7]; first compound 158.11 µM,0.404
same,relative viability,[7]; first compound 500 µM,0.0382
same,relative viability,[8]; first compound 5 µM,0.67
same,relative viability,[8]; first compound 15.81 µM,0.602
same,relative viability,[8]; first compound 50 µM,0.668
same,relative viability,[8]; first compound 158.11 µM,0.694
same,relative viability,[8]; first compound 500 µM,0.568
same,relative viability,[9]; first compound 5 µM,0.866
same,relative viability,[9]; first compound 15.81 µM,0.856
same,relative viability,[9]; first compound 50 µM,0.798
same,relative viability,[9]; first compound 158.11 µM,0.281
same,relative viability,[9]; first compound 500 µM,0.151
same,relative viability,[10]; first compound 5 µM,0.693
same,relative viability,[10]; first compound 15.81 µM,0.687
same,relative viability,[10]; first compound 50 µM,0.66
same,relative viability,[10]; first compound 158.11 µM,0.504
same,relative viability,[10]; first compound 500 µM,0.207
same,relative viability,[11]; first compound 5 µM,0.277
same,relative viability,[11]; first compound 15.81 µM,0.241
same,relative viability,[11]; first compound 50 µM,0.245
same,relative viability,[11]; first compound 158.11 µM,0.171
same,relative viability,[11]; first compound 500 µM,0.0629
same,relative viability,[12]; first compound 5 µM,0.557
same,relative viability,[12]; first compound 15.81 µM,0.538
same,relative viability,[12]; first compound 50 µM,0.485
same,relative viability,[12]; first compound 158.11 µM,0.447
same,relative viability,[12]; first compound 500 µM,0.001
same,relative viability,[13]; first compound 5 µM,0.391
same,relative viability,[13]; first compound 15.81 µM,0.388
same,relative viability,[13]; first compound 50 µM,0.351
same,relative viability,[13]; first compound 158.11 µM,0.274
same,relative viability,[13]; first compound 500 µM,0.0492
same,relative viability,[14]; first compound 5 µM,0.407
same,relative viability,[14]; first compound 15.81 µM,0.303
same,relative viability,[14]; first compound 50 µM,0.29
same,relative viability,[14]; first compound 158.11 µM,0.0518
same,relative viability,[14]; first compound 500 µM,0.0054
same,relative viability,[15]; first compound 5 µM,0.66
same,relative viability,[15]; first compound 15.81 µM,0.643
same,relative viability,[15]; first compound 50 µM,0.7
same,relative viability,[15]; first compound 158.11 µM,0.448
same,relative viability,[15]; first compound 500 µM,0.63
same,relative viability,[16]; first compound 5 µM,0.718
same,relative viability,[16]; first compound 15.81 µM,0.715
same,relative viability,[16]; first compound 50 µM,0.662
same,relative viability,[16]; first compound 158.11 µM,0.482
same,relative viability,[16]; first compound 500 µM,0.101
same,relative viability,[17]; first compound 5 µM,0.651
same,relative viability,[17]; first compound 15.81 µM,0.531
same,relative viability,[17]; first compound 50 µM,0.62
same,relative viability,[17]; first compound 158.11 µM,0.263
same,relative viability,[17]; first compound 500 µM,0.0292
same,relative viability,[18]; first compound 5 µM,0.511
same,relative viability,[18]; first compound 15.81 µM,0.422
same,relative viability,[18]; first compound 50 µM,0.515
same,relative viability,[18]; first compound 158.11 µM,0.336
same,relative viability,[18]; first compound 500 µM,0.0015
same,relative viability,[19]; first compound 5 µM,0.615
same,relative viability,[19]; first compound 15.81 µM,0.596
same,relative viability,[19]; first compound 50 µM,0.586
same,relative viability,[19]; first compound 158.11 µM,0.255
same,relative viability,[19]; first compound 500 µM,0.0397
same,relative viability,[20]; first compound 5 µM,0.636
same,relative viability,[20]; first compound 15.81 µM,0.422
same,relative viability,[20]; first compound 50 µM,0.535
same,relative viability,[20]; first compound 158.11 µM,0.173
same,relative viability,[20]; first compound 500 µM,0.0125
same,relative viability,[21]; first compound 5 µM,0.445
same,relative viability,[21]; first compound 15.81 µM,0.415
same,relative viability,[21]; first compound 50 µM,0.466
same,relative viability,[21]; first compound 158.11 µM,0.346
same,relative viability,[21]; first compound 500 µM,0.373
same,relative viability,[22]; first compound 5 µM,0.753
same,relative viability,[22]; first compound 15.81 µM,0.658
same,relative viability,[22]; first compound 50 µM,0.729
same,relative viability,[22]; first compound 158.11 µM,0.517
same,relative viability,[22]; first compound 500 µM,0.276
same,relative viability,[23]; first compound 5 µM,0.285
same,relative viability,[23]; first compound 15.81 µM,0.26
same,relative viability,[23]; first compound 50 µM,0.296
same,relative viability,[23]; first compound 158.11 µM,0.152
same,relative viability,[23]; first compound 500 µM,0.0346
